{
  "source": "patent US11746116B2",
  "about": "“Antibiotic resistance breakers” (KING'S COLLEGE LONDON, priority 2017, dated 2023)",
  "tested_on": "extended bacterial panel",
  "assay": "MIC against an extended bacterial panel (Table 15)",
  "type": "cell-based",
  "data": [
    {"smiles": "CN(C)c1cc(NC(=O)CNC(C)(C)C)c(O)c2c1C[C@H]1C[C@H]3[C@H](N(C)C)C(O)=C(C(N)=O)C(=O)[C@@]3(O)C(O)=C1C2=O", "note": "[Tigecycline, tigecycline, reference compound]", "values": [
      {"measurement": "MIC", "setting": "Enterococcus faecalis, ATCC29212, Enterococcus faecalis ATCC 29212", "value": 0.125, "unit": "µg/mL"},
      {"measurement": "MIC", "setting": "Enterococcus faecalis, ATCC51299, Enterococcus faecalis ATCC 51299, VanB", "value": 0.0625, "unit": "µg/mL"},
      {"measurement": "MIC", "setting": "Enterococcus faecalis, ATCC51575, Enterococcus faecalis ATCC 51575, VanB", "value": 0.125, "unit": "µg/mL"},
      {"measurement": "MIC", "setting": "Enterococcus faecalis, ATCC700802, Enterococcus faecalis ATCC 700802, VanB", "value": 0.125, "unit": "µg/mL"},
      {"measurement": "MIC", "setting": "Enterococcus faecalis, CCUG47775, Enterococcus faecalis CCUG 47775, Van A", "value": 0.125, "unit": "µg/mL"},
      {"measurement": "MIC", "setting": "Enterococcus faecium, CCUG59167, Enterococcus faecium TUH44-29, CCUG 59167, Van A", "value": 0.0625, "unit": "µg/mL"},
      {"measurement": "MIC", "setting": "Enterococcus gallinarum, ATCC 49608 / GALLINARUM, Enterococcus gallinarum ATCC 49608, VanC", "value": 0.125, "unit": "µg/mL"}
    ]},
    {"smiles": "CN[C@H](CC(C)C)C(=O)N[C@H]1C(=O)N[C@@H](CC(N)=O)C(=O)N[C@H]2C(=O)N[C@H]3C(=O)N[C@H](C(=O)N[C@H](C(=O)O)c4cc(O)cc(O)c4-c4cc3ccc4O)[C@H](O)c3ccc(c(Cl)c3)Oc3cc2cc(c3O[C@@H]2O[C@H](CO)[C@@H](O)[C@H](O)[C@H]2O[C@H]2C[C@](C)(N)[C@H](O)[C@H](C)O2)Oc2ccc(cc2Cl)[C@H]1O", "note": "[Vancomycin, vancomycin, reference compound]", "values": [
      {"measurement": "MIC", "setting": "Staphylococcus aureus, ATCC10390, Staphylococcus aureus ATCC 10390", "value": 1, "unit": "µg/mL"},
      {"measurement": "MIC", "setting": "Staphylococcus aureus, ATCC 13709 / MRSA, Staphylococcus aureus ATCC 13709, MRSA", "value": 0.5, "unit": "µg/mL"},
      {"measurement": "MIC", "setting": "Staphylococcus aureus, ATCC19636, Staphylococcus aureus Smith, ATCC 19636", "value": 0.5, "unit": "µg/mL"},
      {"measurement": "MIC", "setting": "Staphylococcus aureus, ATCC27660, Staphylococcus aureus ATCC 27660", "value": 0.5, "unit": "µg/mL"},
      {"measurement": "MIC", "setting": "Staphylococcus aureus, ATCC29213, Staphylococcus aureus ATCC 29213", "value": 0.5, "unit": "µg/mL"},
      {"measurement": "MIC", "setting": "Staphylococcus aureus, ATCC29213, Staphylococcus aureus ATCC 29213 with 50% human serum", "value": 1, "unit": "µg/mL"},
      {"measurement": "MIC", "setting": "Staphylococcus aureus, ATCC 33591 / MRSA, Staphylococcus aureus ATCC 33591, MRSA", "value": 0.5, "unit": "µg/mL"},
      {"measurement": "MIC", "setting": "Staphylococcus aureus, ATCC 33592 / MRSA, Staphylococcus aureus ATCC 33592, MRSA", "value": 0.5, "unit": "µg/mL"},
      {"measurement": "MIC", "setting": "Staphylococcus aureus, ATCC33594, Staphylococcus aureus ATCC 33594", "value": 0.5, "unit": "µg/mL"},
      {"measurement": "MIC", "setting": "Staphylococcus aureus, ATCC49230, Staphylococcus aureus ATCC 49230", "value": 0.5, "unit": "µg/mL"},
      {"measurement": "MIC", "setting": "Staphylococcus aureus, BAA-1556 / MRSA / USA300, Staphylococcus aureus FPR3757, BAA-1556, USA300 MRSA", "value": 0.5, "unit": "µg/mL"},
      {"measurement": "MIC", "setting": "Staphylococcus aureus, BAA-1707 / MRSA / USA400, Staphylococcus aureus MW2, BAA-1707, USA400 MRSA", "value": 0.5, "unit": "µg/mL"},
      {"measurement": "MIC", "setting": "Staphylococcus aureus, BAA-1717 / MRSA / USA300, Staphylococcus aureus TCH1516, BAA-1717, USA300 MRSA", "value": 0.5, "unit": "µg/mL"},
      {"measurement": "MIC", "setting": "Staphylococcus aureus, MRSA / NRS 71, Staphylococcus aureus NRS71, MRSA", "value": 0.25, "unit": "µg/mL"},
      {"measurement": "MIC", "setting": "Staphylococcus aureus, MRSA / NRS 119, Staphylococcus aureus NRS119, MRSA LZD-NS", "value": 1, "unit": "µg/mL"},
      {"measurement": "MIC", "setting": "Staphylococcus aureus, MRSA / NRS 123 / USA400, Staphylococcus aureus NRS123, USA400 MRSA", "value": 0.5, "unit": "µg/mL"},
      {"measurement": "MIC", "setting": "Staphylococcus aureus, MRSA / NRS 127, Staphylococcus aureus NRS127, MRSA LZD-NS", "value": 1, "unit": "µg/mL"},
      {"measurement": "MIC", "setting": "Staphylococcus aureus, MRSA / NRS 271, Staphylococcus aureus E-MRSA 15, NRS271, MRSA LZD-NS", "value": 0.5, "unit": "µg/mL"},
      {"measurement": "MIC", "setting": "Staphylococcus aureus, MRSA / NRS 382 / USA100, Staphylococcus aureus NRS382, USA100 MRSA", "value": 1, "unit": "µg/mL"},
      {"measurement": "MIC", "setting": "Staphylococcus aureus, MRSA / NRS 383 / USA200, Staphylococcus aureus NRS383, USA200 MRSA TIG-NS", "value": 0.5, "unit": "µg/mL"},
      {"measurement": "MIC", "setting": "Staphylococcus aureus, MRSA / NRS 384 / USA300, Staphylococcus aureus NRS384, USA300 MRSA", "value": 0.5, "unit": "µg/mL"},
      {"measurement": "MIC", "setting": "Staphylococcus aureus, MRSA / NRS 385 / USA500, Staphylococcus aureus NRS385, USA500 MRSA", "value": 0.5, "unit": "µg/mL"},
      {"measurement": "MIC", "setting": "Staphylococcus aureus, MRSA / NRS 386 / USA700, Staphylococcus aureus NRS386, USA700 MRSA", "value": 0.5, "unit": "µg/mL"},
      {"measurement": "MIC", "setting": "Staphylococcus aureus, MRSA / NRS 387 / USA800, Staphylococcus aureus NRS387, USA800 MRSA", "value": 1, "unit": "µg/mL"},
      {"measurement": "MIC", "setting": "Staphylococcus aureus, MRSA / NRS 483, Staphylococcus aureus NRS483, USA1000 MRSA", "value": 0.5, "unit": "µg/mL"},
      {"measurement": "MIC", "setting": "Staphylococcus aureus, MRSA / NRS 484, Staphylococcus aureus NRS484, USA1100 MRSA", "value": 1, "unit": "µg/mL"},
      {"measurement": "MIC", "setting": "Staphylococcus aureus, MRSA, Staphylococcus aureus ECL 2963621, MRSA DAP-NS", "value": 1, "unit": "µg/mL"},
      {"measurement": "MIC", "setting": "Staphylococcus aureus, MRSA, Staphylococcus aureus ECL 2963667, MRSA DAP-NS", "value": 1, "unit": "µg/mL"},
      {"measurement": "MIC", "setting": "Staphylococcus aureus, MRSA, Staphylococcus aureus ECL 2963743, MRSA DAP-NS", "value": 1, "unit": "µg/mL"},
      {"measurement": "MIC", "setting": "Staphylococcus aureus, MRSA, Staphylococcus aureus R136", "value": 0.5, "unit": "µg/mL"},
      {"measurement": "MIC", "setting": "Staphylococcus aureus, NRS72, Staphylococcus aureus Sanger-476, NRS72", "value": 0.5, "unit": "µg/mL"},
      {"measurement": "MIC", "setting": "Staphylococcus aureus, NRS157, Staphylococcus aureus NRS157", "value": 0.5, "unit": "µg/mL"},
      {"measurement": "MIC", "setting": "Staphylococcus aureus, Staphylococcus aureus 6538P", "value": 0.125, "unit": "µg/mL"},
      {"measurement": "MIC", "setting": "Staphylococcus epidermidis, ATCC12228, Staphylococcus epidermidis ATCC 12228", "value": 0.5, "unit": "µg/mL"},
      {"measurement": "MIC", "setting": "Staphylococcus epidermidis, ATCC51625, Staphylococcus epidermidis CCF 15990, ATCC 51625", "value": 1, "unit": "µg/mL"},
      {"measurement": "MIC", "setting": "Staphylococcus epidermidis, NRS101, Staphylococcus epidermidis NRS101", "value": 1, "unit": "µg/mL"},
      {"measurement": "MIC", "setting": "Staphylococcus haemolyticus, ATCC29970, Staphylococcus haemolyticus ATCC 29970", "value": 1, "unit": "µg/mL"},
      {"measurement": "MIC", "setting": "Staphylococcus intermedius, ATCC29663, Staphylococcus intermedius ATCC 29663", "value": 1, "unit": "µg/mL"},
      {"measurement": "MIC", "setting": "Staphylococcus saprophyticus, ATCC15305, Staphylococcus saprophyticus ATCC 15305", "value": 0.5, "unit": "µg/mL"},
      {"measurement": "MIC", "setting": "Strepotococcus pyogenes ATCC 14289", "value": 0.25, "unit": "µg/mL"},
      {"measurement": "MIC", "setting": "Strepotococcus pyogenes ATCC 19615", "value": 0.25, "unit": "µg/mL"},
      {"measurement": "MIC", "setting": "Streptococcus agalactiae, ATCC12386, Streptococcus agalactiae ATCC 12386", "value": 0.5, "unit": "µg/mL"},
      {"measurement": "MIC", "setting": "Streptococcus mutans, ATCC25175, Streptococcus mutans ATCC 25175", "value": 2, "unit": "µg/mL"},
      {"measurement": "MIC", "setting": "Streptococcus oralis, ATCC9811, Streptococcus oralis ATCC 9811", "value": 0.5, "unit": "µg/mL"},
      {"measurement": "MIC", "setting": "Streptococcus pneumoniae, ATCC6301, Streptococcus pneumoniae ATCC 6301", "value": 0.25, "unit": "µg/mL"},
      {"measurement": "MIC", "setting": "Streptococcus pneumoniae, ATCC49619, Streptococcus pneumoniae ATCC 49619", "value": 0.25, "unit": "µg/mL"},
      {"measurement": "MIC", "setting": "Streptococcus pneumoniae, ATCC51916, Streptococcus pneumoniae Tenessee 23F, ATCC 51916, MDR", "value": 0.25, "unit": "µg/mL"},
      {"measurement": "MIC", "setting": "Streptococcus pneumoniae, ATCC700669, Streptococcus pneumoniae SP264, ATCC 700669, ST 23F", "value": 0.25, "unit": "µg/mL"},
      {"measurement": "MIC", "setting": "Streptococcus pneumoniae, ATCC700673, Streptococcus pneumoniae Hungary 19A, ATCC 700673, MDR", "value": 0.25, "unit": "µg/mL"},
      {"measurement": "MIC", "setting": "Streptococcus pneumoniae, ATCC700675, Streptococcus pneumoniae S. Africa 6B-8, ATCC 700675", "value": 0.25, "unit": "µg/mL"},
      {"measurement": "MIC", "setting": "Streptococcus pneumoniae, ATCC700676, Streptococcus pneumonia England ST14-9 ATCC 700676, ERY-R", "value": 0.25, "unit": "µg/mL"},
      {"measurement": "MIC", "setting": "Streptococcus pneumoniae, ATCC 700677 / PRSP, Streptococcus pneumoniae CSR 14-10, ATCC 700677, PRSP", "value": 0.25, "unit": "µg/mL"},
      {"measurement": "MIC", "setting": "Streptococcus pneumoniae, PRSP, Streptococcus pneumoniae TM532", "value": 0.25, "unit": "µg/mL"},
      {"measurement": "MIC", "setting": "Streptococcus salivarius, ATCC13419, Streptococcus salivarius ATCC 13419", "value": 0.5, "unit": "µg/mL"},
      {"measurement": "MIC", "setting": "Streptococcus sanguinis, ATCC10556, Streptococcus sanguinis ATCC 10556", "value": 0.5, "unit": "µg/mL"}
    ]}
  ]
}
